Literature values in patent publication US20230338375A1, “SUBSTITUTED PYRIDAZINONES FOR USE IN THE TREATMENT OF NEUROMUSCULAR DISEASES” (Edgewise Therapeutics, Inc., priority 2020, published 2023).

System: embryos from zebrafish model of DMD
Conditions: Li and Arner, PLoSONE, 2015

Cc1ccc(S(=O)(=O)NCc2ccccc2)cc1 [BTS, N-benzyl-p-tolyl-sulfonamide]
protection from pathological muscle derangement: protect muscles from pathological muscle derangement
